The values that follow come from ChEMBL document CHEMBL5230137, “4-(3H)-quinazolinones N-3 substituted with a five membered heterocycle: A promising scaffold towards bioactive molecules” (Eur J Med Chem, 2021).

The nature of data set [1]: Acute toxicity in po dosed Swiss albino mouse measured after 24 hrs. Format: organism-based. As to conditions: in vivo.
For data set [2], the target named is Phosphatidylinositol 4,5-bisphosphate 3-kinase catalytic subunit gamma isoform (Homo sapiens, UniProt P48736). The data set is described as follows: Inhibition of PI3Kgamma (unknown origin) incubated for 90 mins by [gamma-33P]-ATP based scintillation counting method.
Chain of Phosphatidylinositol 4,5-bisphosphate 3-kinase catalytic subunit gamma isoform (P48736 whole entry, canonical isoform): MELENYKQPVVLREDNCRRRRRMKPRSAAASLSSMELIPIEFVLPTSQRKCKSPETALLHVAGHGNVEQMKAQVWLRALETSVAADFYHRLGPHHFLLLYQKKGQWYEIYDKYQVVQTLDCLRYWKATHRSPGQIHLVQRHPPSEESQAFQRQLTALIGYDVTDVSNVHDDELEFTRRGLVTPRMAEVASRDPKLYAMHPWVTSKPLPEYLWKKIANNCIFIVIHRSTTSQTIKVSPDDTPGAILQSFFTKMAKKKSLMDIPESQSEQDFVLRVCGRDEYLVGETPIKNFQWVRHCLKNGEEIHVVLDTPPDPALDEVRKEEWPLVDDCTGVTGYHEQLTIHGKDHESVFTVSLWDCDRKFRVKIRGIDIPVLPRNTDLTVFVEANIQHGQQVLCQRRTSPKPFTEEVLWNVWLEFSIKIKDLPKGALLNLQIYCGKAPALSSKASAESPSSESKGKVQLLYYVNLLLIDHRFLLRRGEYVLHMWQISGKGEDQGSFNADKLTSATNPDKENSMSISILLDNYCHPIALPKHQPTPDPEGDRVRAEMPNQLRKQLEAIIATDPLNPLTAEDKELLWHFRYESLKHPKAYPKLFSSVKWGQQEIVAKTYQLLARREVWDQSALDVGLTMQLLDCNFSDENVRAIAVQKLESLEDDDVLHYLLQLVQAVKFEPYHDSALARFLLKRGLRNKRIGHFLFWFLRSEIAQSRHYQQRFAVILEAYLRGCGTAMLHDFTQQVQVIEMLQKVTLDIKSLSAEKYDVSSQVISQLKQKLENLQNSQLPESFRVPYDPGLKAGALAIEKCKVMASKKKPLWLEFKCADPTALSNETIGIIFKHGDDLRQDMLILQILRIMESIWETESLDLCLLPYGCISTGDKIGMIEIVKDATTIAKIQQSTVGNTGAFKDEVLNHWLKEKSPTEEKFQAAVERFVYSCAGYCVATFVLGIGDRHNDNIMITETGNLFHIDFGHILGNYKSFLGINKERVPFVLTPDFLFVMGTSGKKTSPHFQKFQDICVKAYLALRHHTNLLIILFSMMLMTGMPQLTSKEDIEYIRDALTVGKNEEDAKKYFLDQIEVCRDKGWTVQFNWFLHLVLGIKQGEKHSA
The target in data set [3] is T1, Phosphatidylinositol 4,5-bisphosphate 3-kinase catalytic subunit delta isoform (Homo sapiens, UniProt O00329).
T1 sequence (O00329 whole entry): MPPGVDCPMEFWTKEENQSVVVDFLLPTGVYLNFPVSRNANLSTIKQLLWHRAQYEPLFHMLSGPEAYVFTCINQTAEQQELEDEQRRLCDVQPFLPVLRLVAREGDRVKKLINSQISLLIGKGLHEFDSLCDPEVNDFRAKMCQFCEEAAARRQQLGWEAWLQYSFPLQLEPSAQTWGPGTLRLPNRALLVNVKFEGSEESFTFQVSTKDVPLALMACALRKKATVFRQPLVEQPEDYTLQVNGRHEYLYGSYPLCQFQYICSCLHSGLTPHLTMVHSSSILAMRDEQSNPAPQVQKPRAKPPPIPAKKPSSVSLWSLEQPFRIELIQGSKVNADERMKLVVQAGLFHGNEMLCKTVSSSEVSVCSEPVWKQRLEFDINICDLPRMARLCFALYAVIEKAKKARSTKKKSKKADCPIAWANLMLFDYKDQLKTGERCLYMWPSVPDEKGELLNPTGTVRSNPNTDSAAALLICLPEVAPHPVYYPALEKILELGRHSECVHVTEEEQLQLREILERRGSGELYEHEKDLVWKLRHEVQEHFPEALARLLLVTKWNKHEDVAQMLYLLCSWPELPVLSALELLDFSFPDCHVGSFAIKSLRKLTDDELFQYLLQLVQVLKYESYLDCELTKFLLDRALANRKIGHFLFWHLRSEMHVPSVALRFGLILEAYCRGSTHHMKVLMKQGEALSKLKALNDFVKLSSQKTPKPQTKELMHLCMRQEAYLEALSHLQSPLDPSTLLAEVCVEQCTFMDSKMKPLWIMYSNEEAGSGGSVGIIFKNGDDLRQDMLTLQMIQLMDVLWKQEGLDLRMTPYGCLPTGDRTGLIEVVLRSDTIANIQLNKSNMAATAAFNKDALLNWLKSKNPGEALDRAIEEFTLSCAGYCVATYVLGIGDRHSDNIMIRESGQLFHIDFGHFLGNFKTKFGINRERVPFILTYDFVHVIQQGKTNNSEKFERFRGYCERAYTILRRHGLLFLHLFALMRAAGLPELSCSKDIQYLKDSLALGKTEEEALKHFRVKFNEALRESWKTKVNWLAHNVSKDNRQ
The data set is described as follows: Inhibition of PI3Kdelta (unknown origin) incubated for 90 mins by [gamma-33P]-ATP based scintillation counting method.

Data set [4] can be described thus: Inhibition of PI3Kdelta in Rat1 cells reduction in phosphorylation of AKT at Ser473 residue incubated for 2 hrs by alpha screen assay. Format: cell-based. As to conditions: Rattus norvegicus, Rat1, 2 h. For orientation: Alpha assays give light when donor and acceptor beads are brought close together.
The target in data set [5] is Phosphatidylinositol 4,5-bisphosphate 3-kinase catalytic subunit alpha isoform (Homo sapiens, UniProt P42336). Nature of the data set: Inhibition of PI3Kalpha (unknown origin) incubated for 90 mins by [gamma-33P]-ATP based scintillation counting method.
Chain of Phosphatidylinositol 4,5-bisphosphate 3-kinase catalytic subunit alpha isoform (P42336 whole entry, canonical isoform): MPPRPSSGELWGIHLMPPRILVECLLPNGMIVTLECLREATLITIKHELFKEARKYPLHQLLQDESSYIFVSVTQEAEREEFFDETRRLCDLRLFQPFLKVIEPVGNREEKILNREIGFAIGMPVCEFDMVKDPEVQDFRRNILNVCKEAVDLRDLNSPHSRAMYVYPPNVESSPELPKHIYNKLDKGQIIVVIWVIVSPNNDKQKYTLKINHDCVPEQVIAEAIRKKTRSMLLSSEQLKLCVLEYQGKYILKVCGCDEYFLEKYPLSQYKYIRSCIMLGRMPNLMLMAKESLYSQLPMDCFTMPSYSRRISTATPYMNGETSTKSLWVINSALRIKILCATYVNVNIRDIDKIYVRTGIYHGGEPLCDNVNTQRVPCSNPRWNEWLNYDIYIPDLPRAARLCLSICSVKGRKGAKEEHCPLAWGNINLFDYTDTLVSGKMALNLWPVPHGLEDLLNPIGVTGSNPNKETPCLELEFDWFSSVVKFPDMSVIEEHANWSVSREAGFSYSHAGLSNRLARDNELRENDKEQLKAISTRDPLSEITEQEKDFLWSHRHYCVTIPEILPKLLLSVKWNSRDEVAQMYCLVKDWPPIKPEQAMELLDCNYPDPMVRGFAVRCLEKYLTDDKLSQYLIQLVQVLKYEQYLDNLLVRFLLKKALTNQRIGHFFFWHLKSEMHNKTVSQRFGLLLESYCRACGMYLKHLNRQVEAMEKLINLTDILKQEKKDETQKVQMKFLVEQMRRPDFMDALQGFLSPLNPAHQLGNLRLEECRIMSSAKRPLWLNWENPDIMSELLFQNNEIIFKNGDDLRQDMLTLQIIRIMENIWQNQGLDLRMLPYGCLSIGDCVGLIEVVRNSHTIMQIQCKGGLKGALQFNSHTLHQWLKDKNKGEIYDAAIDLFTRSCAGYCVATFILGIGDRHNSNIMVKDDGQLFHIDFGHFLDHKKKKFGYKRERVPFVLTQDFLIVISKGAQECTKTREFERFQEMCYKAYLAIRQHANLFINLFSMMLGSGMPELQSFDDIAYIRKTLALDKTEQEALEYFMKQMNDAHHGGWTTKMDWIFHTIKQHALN
Data set [6] concerns Staphylococcus aureus. The data set is described as follows: Bactericidal activity against Staphylococcus aureus. Format: functional.
Data set [7] concerns the target COX-1/COX-2 (Homo sapiens) (UniProt P35354+P23219). The data set is described as follows: Selectivity index, ratio of IC50 for human COX-1 to IC50 for human COX-2. Format: protein assay.
Data set [8] relates to Ehrlich. Nature of the data set: Antitumor activity against mouse EAC cells implanted in mouse assessed as decrease in total ascitic volume. Format: functional. On the set-up: scale not given: the % may be the effect or the level left.
For data set [9], the system named is Ehrlich. Nature of the data set: Antitumor activity against mouse EAC cells implanted in mouse assessed as reduction in tumor cell count. Type of data set: functional. On the set-up: scale not given: the % may be the effect or the level left.
The target of data set [10] is Epidermal growth factor receptor (Homo sapiens, UniProt P00533). Nature of the data set: Inhibition of wild type human EGFR measured by ELISA analysis.
Chain of Epidermal growth factor receptor (P00533 whole entry): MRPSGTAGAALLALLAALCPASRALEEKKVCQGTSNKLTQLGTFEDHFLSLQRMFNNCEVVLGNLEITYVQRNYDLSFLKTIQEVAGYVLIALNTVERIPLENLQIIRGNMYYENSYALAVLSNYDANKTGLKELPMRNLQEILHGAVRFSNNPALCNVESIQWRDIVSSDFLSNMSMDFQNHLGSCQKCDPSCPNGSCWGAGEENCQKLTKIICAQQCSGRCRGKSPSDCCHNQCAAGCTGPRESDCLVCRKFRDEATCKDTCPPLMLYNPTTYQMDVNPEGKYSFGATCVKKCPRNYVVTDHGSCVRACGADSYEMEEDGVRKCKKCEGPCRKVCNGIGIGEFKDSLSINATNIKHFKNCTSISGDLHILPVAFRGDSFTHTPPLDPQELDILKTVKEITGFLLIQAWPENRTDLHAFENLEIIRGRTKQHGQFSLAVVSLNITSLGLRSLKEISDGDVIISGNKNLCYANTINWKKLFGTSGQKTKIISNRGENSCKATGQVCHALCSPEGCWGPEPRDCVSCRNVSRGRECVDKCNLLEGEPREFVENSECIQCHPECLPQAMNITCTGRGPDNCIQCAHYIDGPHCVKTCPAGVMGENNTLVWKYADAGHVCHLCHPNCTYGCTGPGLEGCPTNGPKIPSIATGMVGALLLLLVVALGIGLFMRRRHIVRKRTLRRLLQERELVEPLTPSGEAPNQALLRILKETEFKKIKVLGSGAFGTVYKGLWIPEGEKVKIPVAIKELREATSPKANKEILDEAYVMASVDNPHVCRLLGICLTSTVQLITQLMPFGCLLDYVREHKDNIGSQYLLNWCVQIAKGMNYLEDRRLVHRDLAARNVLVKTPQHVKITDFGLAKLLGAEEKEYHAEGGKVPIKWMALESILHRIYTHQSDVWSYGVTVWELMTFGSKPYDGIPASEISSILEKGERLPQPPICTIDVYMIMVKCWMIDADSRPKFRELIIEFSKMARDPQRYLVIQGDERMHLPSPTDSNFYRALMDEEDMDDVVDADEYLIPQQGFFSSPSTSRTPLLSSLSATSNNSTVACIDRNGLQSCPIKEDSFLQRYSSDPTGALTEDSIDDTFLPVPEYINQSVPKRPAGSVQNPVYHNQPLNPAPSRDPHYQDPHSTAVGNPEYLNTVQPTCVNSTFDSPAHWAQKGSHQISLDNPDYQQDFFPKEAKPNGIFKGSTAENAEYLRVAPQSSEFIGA
The test system of the next data set is Aspergillus niger. Nature of the data set: Fungicidal activity against Aspergillus niger. Type of data set: functional.
In the next data set the test system is Aspergillus clavatus. Nature of the data set: Fungicidal activity against Aspergillus clavatus. Type of data set: functional.
Another data set relates to Candida albicans. Nature of the data set: Fungicidal activity against Candida albicans. Format: functional.
Another data set deals with K562. The data set is described as follows: Anticancer activity against human K562 cells assessed as reduction in cell viability. Format: functional, cell-based.
In data set [11] the target is T2, Thermolysin (Bacillus thermoproteolyticus, UniProt P00800).
T2 sequence (P00800 whole entry): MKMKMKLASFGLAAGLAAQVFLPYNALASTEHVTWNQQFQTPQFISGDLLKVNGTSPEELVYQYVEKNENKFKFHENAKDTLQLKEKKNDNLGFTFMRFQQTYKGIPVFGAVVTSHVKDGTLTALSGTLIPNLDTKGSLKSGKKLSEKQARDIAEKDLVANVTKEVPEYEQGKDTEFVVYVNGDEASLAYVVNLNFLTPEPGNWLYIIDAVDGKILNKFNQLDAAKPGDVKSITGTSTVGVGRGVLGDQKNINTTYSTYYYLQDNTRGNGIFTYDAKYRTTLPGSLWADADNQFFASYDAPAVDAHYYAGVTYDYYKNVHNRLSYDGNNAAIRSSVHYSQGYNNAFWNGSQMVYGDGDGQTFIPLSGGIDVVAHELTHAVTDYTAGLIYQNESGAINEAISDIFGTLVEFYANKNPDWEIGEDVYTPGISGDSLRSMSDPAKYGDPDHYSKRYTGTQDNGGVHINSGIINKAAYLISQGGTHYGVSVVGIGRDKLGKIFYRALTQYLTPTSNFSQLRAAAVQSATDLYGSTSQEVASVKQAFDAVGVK
The data set is described as follows: Inhibition of Bacillus thermoproteolyticus Thermolysin.

The target of data set [12] is T2, Thermolysin. Nature of the data set: Binding affinity to Bacillus thermoproteolyticus Thermolysin assessed as inhibition constant by Cheng-Prusoff equation analysis.
For a further data set, the system named is Bacillus subtilis. The data set is described as follows: Antimicrobial activity against Bacillus subtilis by CLSI method. Format: functional.
In data set [13] the test system is Staphylococcus aureus. Nature of the data set: Antimicrobial activity against Staphylococcus aureus by CLSI method. Type of data set: functional.
In data set [14] the test system is Pseudomonas aeruginosa. Nature of the data set: Antimicrobial activity against Pseudomonas aeruginosa by CLSI method. Format: functional.
For data set [15], the system named is Escherichia coli. The data set is described as follows: Antibacterial activity against Escherichia coli by CLSI method. Format: functional.
In data set [16] the test system is Pseudomonas aeruginosa. Nature of the data set: Bactericidal activity against Pseudomonas aeruginosa. Type of data set: functional.
Data set [17] deals with Escherichia coli. Nature of the data set: Bactericidal activity against Escherichia coli. Format: functional.

≈ marks a conversion by molar mass, not a printed value.

What is called IC50 is the concentration that gives 50% inhibition. The term MBC denotes the smallest concentration meeting the test's criterion for killing. What is called MFC is the smallest concentration meeting the test's criterion for killing the fungus. The Ki is the equilibrium dissociation constant of an inhibitor or competing ligand from its target. As usually defined, the MIC is the smallest concentration in the dilution series that meets the test's criterion for growth inhibition.

`CC1=Cc2ccc(Br)cc2C(=O)C1c1nnc(SCC(=O)NC2C(=O)CSC2c2c(Br)cccc2Br)[nH]1` (centres undefined): the LD in [1] amounted to 1400 mg/kg.

Regarding `CN1CCN(C)/C(=N/c2ccc([N+](=O)[O-])cc2C(=O)Nc2ccccc2)C1`, the IC50 in data set [2] was greater than 10 µM; in [3] it was 0.082 µM; in [4], 2.26 µM; in data set [5], greater than 10 µM.

As to `CC1(C)S[C@@H]2[C@H](NC(=O)[C@H](N)c3ccccc3)C(=O)N2[C@H]1C(=O)O` [AMPICILLIN], in the data set with Staphylococcus aureus [6], the MBC turned out to be 250 µg/mL (≈ 715 µM).

Take `Cc1ccc2nc(-c3ccccc3)n(-c3n[nH]c4ccccc34)c(=O)c2c1`: the Ratio IC50 in data set [7] was 3.59.

For `Cc1nc2ccccc2c(=O)n1-c1nnc(S)s1`, the figures for the Activity in the data set with Ehrlich [8] and in the data set on Ehrlich [9] were 28% and 12%, respectively.

Regarding `Cn1nccc1-n1c([C@@H]2CSCN2c2ncnc3[nH]cnc23)nc2cccc(Cl)c2c1=O`, the IC50 in data set [4] was found to be 0.222 µM; in data set [5], 9.1 µM.

In turn, `Cn1nccc1-n1c([C@@H]2CSCN2c2ncnc(N)c2C#N)nc2cccc(Cl)c2c1=O` returned an IC50 in data set [4] greater than 10 µM.

The molecule `O=c1c2cc(Br)ccc2nc(Cc2ccccc2Nc2c(Cl)cccc2Cl)n1-c1nnc(-c2ccccc2Cl)o1` came in with an MBC against Staphylococcus aureus [6] of 50 µg/mL (≈ 76.5 µM).

In [1], `CC1=Cc2ccc(Br)cc2C(=O)C1c1nnc(SCC(=O)N/N=C/c2c(Br)cccc2Br)[nH]1` (centres undefined) showed an LD of 1400 mg/kg.

In turn, `COc1ccc(-c2nnc(-n3c(-c4ccccc4)nc4cc(Cl)ccc4c3=O)o2)cc1` yielded a half-maximal inhibitory concentration (IC50) in data set [10] of 0.021 µM.

In the data set on Staphylococcus aureus [6], `O=c1c2ccccc2nc(Cc2ccccc2Nc2c(Cl)cccc2Cl)n1-c1ccc(-c2nnc(-c3ccccc3Cl)o2)cc1` showed an MBC of 50 µg/mL (≈ 76.8 µM).

Take `O=c1c2cc(I)ccc2nc(Cc2ccccc2Nc2c(Cl)cccc2Cl)n1Cc1nnc(-c2ccccc2Cl)o1`: the MFC in the data set with Aspergillus niger was 200 µg/mL (≈ 280 µM); against Aspergillus clavatus, 200 µg/mL (≈ 280 µM); in the data set on Candida albicans, 100 µg/mL (≈ 140 µM).

On to `N#Cc1c(N)ncnc1N1CSC[C@H]1c1nc2cccc(Cl)c2c(=O)n1-c1cccs1`, for which the half-maximal inhibitory concentration (IC50) in [2] is 1.1 µM; in data set [3] it was 0.14 µM; in [4] it was 0.509 µM; in [5], greater than 10 µM.

As to `O=c1c2ccccc2nc(Cc2ccccc2Nc2c(Cl)cccc2Cl)n1Cc1nnc(-c2ccc(Cl)cc2)o1`, the IC50 with K562 was 1 µM.

On to `O=c1c2ccccc2nc(-c2ccccc2)n1-c1nccs1`, for which the IC50 at Thermolysin [11] amounted to 76.8 µM. Further, the inhibition constant Ki at Thermolysin [12] was determined as 59.3 µM.

With `O=c1c2cc(Br)ccc2nc(-c2ccccc2)n1-c1n[nH]c2ccccc12`, the Ratio IC50 in data set [7] is 1.05.

`O=c1c2cc(I)ccc2nc(Cc2ccccc2Nc2c(Cl)cccc2Cl)n1-c1ccc(-c2nnc(-c3ccc(Cl)cc3)o2)cc1` had an MBC with Staphylococcus aureus [6] of 50 µg/mL (≈ 64.4 µM).

In the data set with Staphylococcus aureus [6], `O=c1c2cc(Br)ccc2nc(Cc2ccccc2Nc2c(Cl)cccc2Cl)n1Cc1nnc(-c2ccc(Cl)cc2)o1` returned a minimum bactericidal concentration (MBC) of 50 µg/mL (≈ 74.9 µM). Further, in the data set with K562, the IC50 was determined as 1.5 µM.

`O=c1c2ccc(Cl)cc2nc(-c2ccccc2)n1-c1nnc(-c2ccccc2C2CC2)o1` had an IC50 in data set [10] of 0.102 µM.

On to `O=c1c2ccccc2nc(/C=C/c2ccccc2)n1-c1nnc(-c2ccc(Cl)cc2)o1`, for which the MIC amounted to 75 µg/mL (≈ 176 µM) against Bacillus subtilis, 79 µg/mL (≈ 185 µM) against Staphylococcus aureus [13], 70 µg/mL (≈ 164 µM) against Pseudomonas aeruginosa [14] and 70 µg/mL (≈ 164 µM) against Escherichia coli [15].

Consider `O=c1c2cc(Cl)ccc2nc(-c2ccccc2)n1-c1n[nH]c2ccccc12`, for which the Ratio IC50 in data set [7] came to 2.55.

For the molecule `O=c1c2cc(I)ccc2nc(Cc2ccccc2Nc2c(Cl)cccc2Cl)n1-c1ccc(-c2nnc(-c3ccccc3Cl)o2)cc1`, in the data set with Staphylococcus aureus [6], the minimum bactericidal concentration (MBC) turned out to be 50 µg/mL (≈ 64.4 µM).

For `O=c1c2cc(I)ccc2nc(Cc2ccccc2Nc2c(Cl)cccc2Cl)n1Cc1nnc(-c2ccc(Cl)cc2)o1`, the MBC with Pseudomonas aeruginosa [16] is 150 µg/mL (≈ 210 µM); against Escherichia coli [17] it was 50 µg/mL (≈ 70 µM).
